Data taken from patent EP4620956A1, “PARP1 INHIBITORS” (Zhejiang Yangli Pharmaceutical Technology Co., Ltd., priority 2022, dated 2024).

Molecular target: T1, PARP3 (Homo sapiens, UniProt Q9Y6F1)
T1 construct: purchased BPS 80503
T1 sequence (Q9Y6F1 1-533): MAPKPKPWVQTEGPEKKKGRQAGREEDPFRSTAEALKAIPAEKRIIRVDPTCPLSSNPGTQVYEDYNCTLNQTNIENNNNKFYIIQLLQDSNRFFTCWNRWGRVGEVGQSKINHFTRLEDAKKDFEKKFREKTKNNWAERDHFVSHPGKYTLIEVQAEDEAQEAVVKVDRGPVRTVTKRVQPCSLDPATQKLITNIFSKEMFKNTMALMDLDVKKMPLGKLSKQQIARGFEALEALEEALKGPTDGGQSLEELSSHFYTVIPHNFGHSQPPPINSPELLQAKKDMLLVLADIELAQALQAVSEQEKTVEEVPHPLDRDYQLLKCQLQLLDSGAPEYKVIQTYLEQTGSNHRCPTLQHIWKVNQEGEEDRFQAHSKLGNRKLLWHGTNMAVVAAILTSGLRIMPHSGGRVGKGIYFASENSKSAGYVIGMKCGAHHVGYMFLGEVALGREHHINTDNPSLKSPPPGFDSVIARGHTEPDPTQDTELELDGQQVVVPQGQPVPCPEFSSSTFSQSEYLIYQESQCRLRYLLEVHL
Assay: Inhibition of PARP3 enzyme activity (chemiluminescence)
Assay type: biochemical

[2H]C([2H])([2H])NC(=O)c1ccc(N2CCN(Cc3cnc4c(N)c(CC)c(=O)[nH]c4c3)CC2)c(F)n1 [Example 4, 5-(4-((8-Amino-7-ethyl-6-oxo-5,6-dihydro-1,5-naphthyridin-3-yl)methyl)piperazin-1-yl)-6-fluoro-N-(methyl-d3)picolinamide]
IC50 (enzyme activity): 7.65 µM | PARP3 multiple vs PARP1 (ratio relative to the PARP1 enzyme activity): 15,929
